The text below walks through data of patent US20250223268A1, “4-Methylsulfonylbenzamide Compound, Preparation Method, Herbicidal Composition And Use” (Jiangsu Flag Chemical Industry Co., Ltd., priority 2022, published 2025).

What all share (experiment): Greenhouse herbicidal activity assay, post-emergence
What all share (format): in vivo
What all share (conditions): Post-emergence test, rate 150 g a.i./hm^2, grade by fresh weight inhibition rate

One assay relates to Echinochloa crusgalli. The method, boiled down:
(§1)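 Weeds and crops grown in pots of nutrient soil in a growth chamber to the 3-6 leaf stage, then foliar-sprayed and air-dried. Fresh weight inhibition scored 14-21 days after treatment and graded A (≥80%) through E (<20%).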

Another assay concerns Eclipta prostrata. The method, boiled down:
as §1

In another assay the test system is Leptochloa chinensis. The method, boiled down:
as §1

The next assay concerns Cyperus iria. The method, boiled down:
as §1

A further assay deals with Digitaria sanguinalis. The method, boiled down:
as §1

For the compound `CS(=O)(=O)c1ccc(C(=O)Nc2nnc(C3CC3)o2)c(Cl)c1[S+]([O-])CCCl` (racemic) [Compound 3-727], the “Control efficacy grade, Echinochloa crusgalli” value in the assay with Echinochloa crusgalli is on record as “A (Fresh weight inhibition rate≥80% to 100%)”. Also, the “Control efficacy grade, Eclipta prostrata” value in the assay with Eclipta prostrata is on record as “A (Fresh weight inhibition rate≥80% to 100%)”. In the assay with Leptochloa chinensis, the “Control efficacy grade, Leptochloa chinensis” value is “A (Fresh weight inhibition rate≥80% to 100%)”. In addition, the “Control efficacy grade, Cyperus iria” value in the assay with Cyperus iria is “A (Fresh weight inhibition rate≥80% to 100%)”. For the same compound, the “Control efficacy grade, Digitaria sanguinalis” value in the assay with Digitaria sanguinalis is “A (Fresh weight inhibition rate≥80% to 100%)”.

For `CCCC[S+]([O-])c1c(S(C)(=O)=O)ccc(C(=O)Nc2nonc2C)c1Cl` (racemic) [Compound 4-12], the “Control efficacy grade, Echinochloa crusgalli” value in the assay with Echinochloa crusgalli is recorded as “A (Fresh weight inhibition rate≥80% to 100%)”. Also, the “Control efficacy grade, Eclipta prostrata” value in the assay with Eclipta prostrata was “A (Fresh weight inhibition rate≥80% to 100%)”. For the same compound, in the assay on Leptochloa chinensis, the “Control efficacy grade, Leptochloa chinensis” value is reported as “B (Fresh weight inhibition rate≥260% to <80%)”. Further, the “Control efficacy grade, Cyperus iria” value in the assay with Cyperus iria is given as “A (Fresh weight inhibition rate≥80% to 100%)”. In addition, in the assay with Digitaria sanguinalis, the “Control efficacy grade, Digitaria sanguinalis” value is “A (Fresh weight inhibition rate≥80% to 100%)”.

Turning to `Cc1nonc1NC(=O)c1ccc(S(C)(=O)=O)c([S+]([O-])C2CC2)c1Cl` (racemic) [Compound 4-38], the “Control efficacy grade, Echinochloa crusgalli” value with Echinochloa crusgalli is on record as “A (Fresh weight inhibition rate≥80% to 100%)”. Also, the “Control efficacy grade, Eclipta prostrata” value in the assay on Eclipta prostrata is on record as “A (Fresh weight inhibition rate≥80% to 100%)”. Also, in the assay with Leptochloa chinensis, the “Control efficacy grade, Leptochloa chinensis” value is recorded as “A (Fresh weight inhibition rate≥80% to 100%)”. In addition, the “Control efficacy grade, Cyperus iria” value in the assay on Cyperus iria is “A (Fresh weight inhibition rate≥80% to 100%)”. The “Control efficacy grade, Digitaria sanguinalis” value with Digitaria sanguinalis was “A (Fresh weight inhibition rate≥80% to 100%)”.

Take `Cc1nonc1NC(=O)c1ccc(S(C)(=O)=O)c([S+]([O-])C2CCC2)c1Cl` (racemic) [Compound 4-43]: the “Control efficacy grade, Echinochloa crusgalli” value with Echinochloa crusgalli was “A (Fresh weight inhibition rate≥80% to 100%)”. Also, the “Control efficacy grade, Eclipta prostrata” value in the assay with Eclipta prostrata is reported as “A (Fresh weight inhibition rate≥80% to 100%)”. In the assay with Leptochloa chinensis, the “Control efficacy grade, Leptochloa chinensis” value was “A (Fresh weight inhibition rate≥80% to 100%)”. In addition, the “Control efficacy grade, Cyperus iria” value with Cyperus iria is “A (Fresh weight inhibition rate≥80% to 100%)”. Also, in the assay with Digitaria sanguinalis, the “Control efficacy grade, Digitaria sanguinalis” value is reported as “A (Fresh weight inhibition rate≥80% to 100%)”.

With `CCC[S+]([O-])c1c(S(C)(=O)=O)ccc(C(=O)Nc2nnnn2C)c1Cl` (single isomer, unassigned) [Compound 1-3], the “Control efficacy grade, Echinochloa crusgalli” value in the assay with Echinochloa crusgalli is given as “A (Fresh weight inhibition rate≥80% to 100%)”. Moreover, in the assay with Eclipta prostrata, the “Control efficacy grade, Eclipta prostrata” value is given as “A (Fresh weight inhibition rate≥80% to 100%)”. Further, in the assay with Leptochloa chinensis, the “Control efficacy grade, Leptochloa chinensis” value is given as “A (Fresh weight inhibition rate≥80% to 100%)”. Further, the “Control efficacy grade, Cyperus iria” value with Cyperus iria was “A (Fresh weight inhibition rate≥80% to 100%)”. In addition, the “Control efficacy grade, Digitaria sanguinalis” value with Digitaria sanguinalis was “A (Fresh weight inhibition rate≥80% to 100%)”.

`CCC[S+]([O-])c1c(S(C)(=O)=O)ccc(C(=O)Nc2nnnn2C)c1Cl` (single isomer, unassigned) [Compound 1-4]: in the assay on Echinochloa crusgalli, the “Control efficacy grade, Echinochloa crusgalli” value is “A (Fresh weight inhibition rate≥80% to 100%)”. In addition, the “Control efficacy grade, Eclipta prostrata” value in the assay on Eclipta prostrata is listed as “A (Fresh weight inhibition rate≥80% to 100%)”. For the same compound, the “Control efficacy grade, Leptochloa chinensis” value in the assay on Leptochloa chinensis was “A (Fresh weight inhibition rate≥80% to 100%)”. In addition, the “Control efficacy grade, Cyperus iria” value with Cyperus iria was “A (Fresh weight inhibition rate≥80% to 100%)”. Moreover, the “Control efficacy grade, Digitaria sanguinalis” value in the assay on Digitaria sanguinalis is on record as “A (Fresh weight inhibition rate≥80% to 100%)”.

Turning to `CC(C)[S+]([O-])c1c(S(C)(=O)=O)ccc(C(=O)Nc2nnnn2C)c1Cl` (single isomer, unassigned) [Compound 1-8], in the assay on Echinochloa crusgalli, the “Control efficacy grade, Echinochloa crusgalli” value was “A (Fresh weight inhibition rate≥80% to 100%)”. Moreover, the “Control efficacy grade, Eclipta prostrata” value in the assay with Eclipta prostrata is given as “A (Fresh weight inhibition rate≥80% to 100%)”. For the same compound, the “Control efficacy grade, Leptochloa chinensis” value in the assay with Leptochloa chinensis is on record as “A (Fresh weight inhibition rate≥80% to 100%)”. The “Control efficacy grade, Cyperus iria” value in the assay with Cyperus iria is recorded as “A (Fresh weight inhibition rate≥80% to 100%)”. Moreover, the “Control efficacy grade, Digitaria sanguinalis” value with Digitaria sanguinalis is reported as “A (Fresh weight inhibition rate≥80% to 100%)”.

As to `CC(C)[S+]([O-])c1c(S(C)(=O)=O)ccc(C(=O)Nc2ncnn2C)c1Cl` (single isomer, unassigned) [Compound 2-8], in the assay with Echinochloa crusgalli, the “Control efficacy grade, Echinochloa crusgalli” value was “A (Fresh weight inhibition rate≥80% to 100%)”. For the same compound, in the assay with Eclipta prostrata, the “Control efficacy grade, Eclipta prostrata” value is recorded as “A (Fresh weight inhibition rate≥80% to 100%)”. Also, in the assay with Leptochloa chinensis, the “Control efficacy grade, Leptochloa chinensis” value is recorded as “A (Fresh weight inhibition rate≥80% to 100%)”. Also, in the assay with Cyperus iria, the “Control efficacy grade, Cyperus iria” value is “A (Fresh weight inhibition rate≥80% to 100%)”. Also, the “Control efficacy grade, Digitaria sanguinalis” value in the assay on Digitaria sanguinalis was “A (Fresh weight inhibition rate≥80% to 100%)”.

With `CC(C)[S+]([O-])c1c(S(C)(=O)=O)ccc(C(=O)Nc2ncnn2C)c1Cl` (single isomer, unassigned) [Compound 2-9], the “Control efficacy grade, Echinochloa crusgalli” value in the assay with Echinochloa crusgalli is given as “A (Fresh weight inhibition rate≥80% to 100%)”. Further, the “Control efficacy grade, Eclipta prostrata” value in the assay with Eclipta prostrata is listed as “A (Fresh weight inhibition rate≥80% to 100%)”. In the assay with Leptochloa chinensis, the “Control efficacy grade, Leptochloa chinensis” value is listed as “A (Fresh weight inhibition rate≥80% to 100%)”. The “Control efficacy grade, Cyperus iria” value with Cyperus iria is recorded as “A (Fresh weight inhibition rate≥80% to 100%)”. In the assay on Digitaria sanguinalis, the “Control efficacy grade, Digitaria sanguinalis” value is recorded as “A (Fresh weight inhibition rate≥80% to 100%)”.

In the case of `Cn1ncnc1NC(=O)c1ccc(S(C)(=O)=O)c([S+]([O-])CC2CC2)c1Cl` (single isomer, unassigned) [Compound 2-29], the “Control efficacy grade, Echinochloa crusgalli” value with Echinochloa crusgalli is reported as “A (Fresh weight inhibition rate≥80% to 100%)”. For the same compound, the “Control efficacy grade, Eclipta prostrata” value in the assay with Eclipta prostrata is “A (Fresh weight inhibition rate≥80% to 100%)”. Further, in the assay with Leptochloa chinensis, the “Control efficacy grade, Leptochloa chinensis” value was “A (Fresh weight inhibition rate≥80% to 100%)”. For the same compound, in the assay with Cyperus iria, the “Control efficacy grade, Cyperus iria” value is given as “A (Fresh weight inhibition rate≥80% to 100%)”. The “Control efficacy grade, Digitaria sanguinalis” value in the assay with Digitaria sanguinalis is “A (Fresh weight inhibition rate≥80% to 100%)”.

Regarding `Cn1ncnc1NC(=O)c1ccc(S(C)(=O)=O)c([S+]([O-])CC2CC2)c1Cl` (single isomer, unassigned) [Compound 2-30], the “Control efficacy grade, Echinochloa crusgalli” value in the assay on Echinochloa crusgalli is “A (Fresh weight inhibition rate≥80% to 100%)”. Further, in the assay with Eclipta prostrata, the “Control efficacy grade, Eclipta prostrata” value is listed as “A (Fresh weight inhibition rate≥80% to 100%)”. The “Control efficacy grade, Leptochloa chinensis” value in the assay with Leptochloa chinensis was “A (Fresh weight inhibition rate≥80% to 100%)”. In addition, in the assay with Cyperus iria, the “Control efficacy grade, Cyperus iria” value is on record as “A (Fresh weight inhibition rate≥80% to 100%)”. For the same compound, the “Control efficacy grade, Digitaria sanguinalis” value in the assay with Digitaria sanguinalis is “A (Fresh weight inhibition rate≥80% to 100%)”.

Take `CCC(C)S(=O)(=O)c1c(S(C)(=O)=O)ccc(C(=O)Nc2nnc(C)o2)c1Cl` (single isomer, unassigned) [Compound 3-25]: in the assay with Echinochloa crusgalli, the “Control efficacy grade, Echinochloa crusgalli” value is recorded as “A (Fresh weight inhibition rate≥80% to 100%)”. For the same compound, the “Control efficacy grade, Eclipta prostrata” value in the assay with Eclipta prostrata is “A (Fresh weight inhibition rate≥80% to 100%)”. Also, in the assay on Leptochloa chinensis, the “Control efficacy grade, Leptochloa chinensis” value is on record as “A (Fresh weight inhibition rate≥80% to 100%)”. Also, the “Control efficacy grade, Cyperus iria” value with Cyperus iria was “A (Fresh weight inhibition rate≥80% to 100%)”. Further, the “Control efficacy grade, Digitaria sanguinalis” value with Digitaria sanguinalis was “A (Fresh weight inhibition rate≥80% to 100%)”.

Take `CCC(C)Sc1c(S(C)(=O)=O)ccc(C(=O)Nc2nnco2)c1Cl` (single isomer, unassigned) [Compound 3-283]: the “Control efficacy grade, Echinochloa crusgalli” value in the assay with Echinochloa crusgalli was “A (Fresh weight inhibition rate≥80% to 100%)”. For the same compound, the “Control efficacy grade, Eclipta prostrata” value with Eclipta prostrata was “A (Fresh weight inhibition rate≥80% to 100%)”. In addition, the “Control efficacy grade, Leptochloa chinensis” value with Leptochloa chinensis is “A (Fresh weight inhibition rate≥80% to 100%)”. Also, in the assay with Cyperus iria, the “Control efficacy grade, Cyperus iria” value was “A (Fresh weight inhibition rate≥80% to 100%)”. In addition, the “Control efficacy grade, Digitaria sanguinalis” value in the assay on Digitaria sanguinalis is given as “A (Fresh weight inhibition rate≥80% to 100%)”.

For the compound `CC(C)[S+]([O-])c1c(S(C)(=O)=O)ccc(C(=O)Nc2nnc(C3CC3)o2)c1Cl` (single isomer, unassigned) [Compound 3-622], in the assay on Echinochloa crusgalli, the “Control efficacy grade, Echinochloa crusgalli” value is given as “A (Fresh weight inhibition rate≥80% to 100%)”. The “Control efficacy grade, Eclipta prostrata” value with Eclipta prostrata is given as “A (Fresh weight inhibition rate≥80% to 100%)”. The “Control efficacy grade, Leptochloa chinensis” value in the assay with Leptochloa chinensis is “A (Fresh weight inhibition rate≥80% to 100%)”. Further, the “Control efficacy grade, Cyperus iria” value in the assay on Cyperus iria is “A (Fresh weight inhibition rate≥80% to 100%)”. Further, the “Control efficacy grade, Digitaria sanguinalis” value in the assay with Digitaria sanguinalis is on record as “A (Fresh weight inhibition rate≥80% to 100%)”.

With `CC(C)[S+]([O-])c1c(S(C)(=O)=O)ccc(C(=O)Nc2nnc(C3CC3)o2)c1Cl` (single isomer, unassigned) [Compound 3-623], the “Control efficacy grade, Echinochloa crusgalli” value in the assay on Echinochloa crusgalli was “A (Fresh weight inhibition rate≥80% to 100%)”. For the same compound, in the assay on Eclipta prostrata, the “Control efficacy grade, Eclipta prostrata” value was “A (Fresh weight inhibition rate≥80% to 100%)”. The “Control efficacy grade, Leptochloa chinensis” value in the assay with Leptochloa chinensis is listed as “A (Fresh weight inhibition rate≥80% to 100%)”. For the same compound, the “Control efficacy grade, Cyperus iria” value in the assay with Cyperus iria was “A (Fresh weight inhibition rate≥80% to 100%)”. Also, the “Control efficacy grade, Digitaria sanguinalis” value in the assay with Digitaria sanguinalis is recorded as “A (Fresh weight inhibition rate≥80% to 100%)”.

As to `CCCSc1c(S(C)(=O)=O)ccc(C(=O)Nc2nnnn2C)c1Cl` [Compound 1-1, 2-chloro-N-(1-methyl-1H-tetrazol-5-yl)-4-(methylsulfonyl)-3-(propylthio)benzamide], the pest or weed control at 150 g/ha fell in the range of 80 to 100% in the assay with Echinochloa crusgalli (Echinochloa crus-galli, read-out: Control efficacy grade, Echinochloa crusgalli); 80 to 100% in the assay with Eclipta prostrata (Eclipta prostrata, read-out: Control efficacy grade, Eclipta prostrata); 80 to 100% in the assay on Leptochloa chinensis (Dinebra chinensis, read-out: Control efficacy grade, Leptochloa chinensis); 80 to 100% in the assay with Cyperus iria (Cyperus iria, read-out: Control efficacy grade, Cyperus iria); 80 to 100% with Digitaria sanguinalis (Digitaria sanguinalis, read-out: Control efficacy grade, Digitaria sanguinalis).
